{
  "source": "patent US20200345746A1",
  "about": "“Oxazine Derivative for Use in the Prevention of Alzheimer's Disease in at Risk Patents” (Novartis AG, priority 2016, published 2020)",
  "key": {"[1]": {"test_system": "amyloid plaques", "experiment": "Plaque histology in APP23 mice (plaque numbers and plaque area)", "assay_type": "in vivo, mouse", "details": "for Number of large plaques / Number of medium plaques / Number of small plaques: normalized to total area (1000000 * mean ± SEM)", "experimental": "Amyloid plaques were stained using a rabbit anti-Aβ primary antibody which recognizes the C-terminal part of the amyloid peptide (the antibody was raised as described in Schrader-Fischer G, Paganetti P A, 1996; Schrader-Fischer G et al., 1997). Activated astrocytes were detected using a commercial rabbit anti-GFAP (reference Z0334 from Dako Schweiz GmbH, Baar, Switzerland).\nAll stainings were performed using the fully automated instrument Ventana Discovery® Ultra (Roche Diagnostics Schweiz AG, Rotkreuz, Switzerland). All chemicals were provided by Roche Diagnostic.\nAll study animals were used and brain tissue sections of 3 micrometers were freshly cut and collected on SuperFrost+ slides. The tissues sections were de-paraffinized and rehydrated under solvent-free conditions (EZprep solution) followed by antigen retrieval (demasking) performed by heat retrieval cycles for 32 min in an EDTA based buffer (CC1 solution). Subsequently, slides were blocked for 4 min using the DISCOVERY Inhibitor (reference 07017944001 (Roche)). The primary antibody diluted at 1/20,000 in antibody diluent was manually added on tissue sections and incubated for 1h at room temperature. A short post-fixation (glutaraldehyde at 0.05%) was performed before applying the multimer UltraMap-anti Rabbit HRP ready to use antibody (reference 05269717001) for 16 min.\nDetection was performed using the DISCOVERY FITC® following the manufacturer's recommendations. Slides were then heat denaturated at 92° C. for 20 min before a manual application of the second primary antibody (anti-GFAP diluted at 1/2,000) and incubated for 1 h. UltraMap-anti-Rabbit HRP antibody was used again for 20 min to detect GFAP in combination with the DISCOVERY Rhodamine kit (reference 07259883001).\nThe slides were washed and mounted using Prolong® Gold antifade reagent (reference P36931, ThermoFisher, Switzerland) and further scanned with the Hamamatsu slide scanner instrument (NanoZoomer 2.0 HT, scanning software NDP-Scan Vers. 2.5, Hamamatsu Photonics France, Swiss Office, Solothurn, Switzerland) at the 40× objective. The scanning settings were as follows: the exposure time with the DAPI filter was set at 57 ms as well as for the FITC filter. The exposure time for the TRITC filter (detection of Rhodamine) was set at 14.2 ms.\nFor the quantitative plaque evaluation based on image analysis, a proprietary image analysis platform (ASTORIA, Automated Stored Image Analysis) was developed based on MS Visual Studio 2010 and many functions from Matrox MIL V9 libraries (Matrox Inc, Quebec, Canada).\nFor the beta-amyloid plaque and neuroinflammation analysis, the following sequence of steps was performed: • Slides were scanned with Hamamatsu Nanozoomer at 40× magnification. For each fluorescence labelling (DAPI, FITC and TRITC), a separate image was created • Manually outline ROIs (regions of interest) for defining cortex in brain sections for Aβ plaque assessment on the green FITC channel image, then use the resulting outline also for the other two channel images (copy resulting xml files) • Run the in-house developed ImageScope (V12.1.0.5029, Aperio Inc., USA) plug-in for creation and export of *.tif image tiles (at 10× magnification) for each of the 3 fluorescence channels\nImage Batch Processing: • Obtain the combined true color image (DAPI, FITC, TRITC) for each section through accessing each individual fluorescence channel image • Segmentation of valid sample (within outlined ROI) from black unstained background • Apply adaptive thresholding technique for segmentation of objects in green channel image […]"}, "[2]": {"experiment": "3-month dose-ranging study: safety and tolerability", "assay_type": "in vivo, human", "details": "healthy elderly subjects, once-daily 2, 10, 35 and 85 mg over three months", "text": "(§1) This study is listed in ClinicalTrials.gov under the NCT02576639 Identifier code.\n(§2) The primary purpose of this study was to expand on previous safety and tolerability data obtained over 2-week and 4-week duration in the first in human study and thereby allow initiation of future long-term efficacy trials in subjects at risk of AD. In addition, data relevant for Pharmacokinetic/Pharmacodynamic modeling was obtained in order to support dose selection decisions for future efficacy studies."}, "[3]": {"test_system": "Aβ40", "experiment": "3-month dose-ranging study: Aβ40 in CSF", "assay_type": "in vivo, human", "details": "for Aβ40 % change from baseline, Mean (SD) / Aβ40 % change from baseline, Median: CSF, 3 months", "text": "as §1, §2\nIn the completed first-in-human and 3-month dose-ranging safety and tolerability clinical studies described in Examples 5 and 6, Aβ concentrations in CSF were obtained by means of lumbar punctures before the first dose (baseline) and respectively after 2 weeks and 3 months of multiple dosing. ApoE4 genotype also was obtained in the subjects who consented. The percent change from baseline in Aβ40 and Aβ42 concentrations was calculated in subjects who took the study treatment and had no major protocol deviation with potential impact on the evaluation of the pharmacodynamic effect. Tables 18 to 21 below provide summary statistics of the percent change from baseline by treatment group and ApoE genotype (E4 heterozygotes versus E4 non-carriers). Only one subject with CSF data was E4 homozygote (from the 3-month dose-ranging safety and tolerability study)."}},
  "data": [
    {"compound": "C[C@@]1(c2nc(NC(=O)c3ncc(C(F)(F)F)cc3Cl)ccc2F)CO[C@@](C)(C(F)(F)F)C(N)=N1", "note": "[Compound 1, N-(6-((3R,6R)-5-amino-3,6-dimethyl-6-(trifluoromethyl)-3,6-dihydro-2H-1,4-oxazin-3-yl)-5-fluoropyridin-2-yl)-3-chloro-5-(trifluoromethyl)picolinamide]", "values": [
      {"measurement": "Number of large plaques", "setting": "[1]; APP23, 0.03 g/kg food", "value": "0.09 ± 0.02"},
      {"measurement": "Number of medium plaques", "setting": "[1]; APP23, 0.03 g/kg food", "value": "1.06 ± 0.14"},
      {"measurement": "Number of small plaques", "setting": "[1]; APP23, 0.03 g/kg food", "value": "10.06 ± 1.55"},
      {"measurement": "Number of large plaques, change vs vehicle", "setting": "[1]; APP23, 0.03 g/kg vs vehicle", "value": "−29.9", "unit": "%"},
      {"measurement": "Number of medium plaques, change vs vehicle", "setting": "[1]; APP23, 0.03 g/kg vs vehicle", "value": "−22.9", "unit": "%"},
      {"measurement": "Number of small plaques, change vs vehicle", "setting": "[1]; APP23, 0.03 g/kg vs vehicle", "value": "−30.3", "unit": "%"},
      {"measurement": "Total plaque area, change vs vehicle", "setting": "[1]; APP23, 0.03 g/kg vs vehicle", "value": "−26.4", "unit": "%"},
      {"measurement": "Number of large plaques", "setting": "[1]; APP23, 0.3 g/kg food", "value": "0.04 ± 0.01"},
      {"measurement": "Number of medium plaques", "setting": "[1]; APP23, 0.3 g/kg food", "value": "0.58 ± 0.10"},
      {"measurement": "Number of small plaques", "setting": "[1]; APP23, 0.3 g/kg food", "value": "5.78 ± 0.75"},
      {"measurement": "Number of large plaques, change vs vehicle", "setting": "[1]; APP23, 0.3 g/kg vs vehicle", "value": "−68.2", "unit": "%"},
      {"measurement": "Number of medium plaques, change vs vehicle", "setting": "[1]; APP23, 0.3 g/kg vs vehicle", "value": "−57.9", "unit": "%"},
      {"measurement": "Number of small plaques, change vs vehicle", "setting": "[1]; APP23, 0.3 g/kg vs vehicle", "value": "−60.0", "unit": "%"},
      {"measurement": "Total plaque area, change vs vehicle", "setting": "[1]; APP23, 0.3 g/kg vs vehicle", "value": "−59.5", "unit": "%"},
      {"measurement": "reduction of plaque load (immunohistochemistry)", "setting": "[1]; APP23, high dose group", "value": "~70", "unit": "%"},
      {"measurement": "reduction of the increase in plaques and total plaque area", "setting": "[1]; APP23, high dose treatment group", "value": "about 60%"},
      {"measurement": "reduction of plaque load (immunohistochemistry)", "setting": "[1]; APP23, low dose group", "value": "~20", "unit": "%"},
      {"measurement": "reduction of the increase in plaques and total plaque area", "setting": "[1]; APP23, low dose treatment group", "value": "about 25%"},
      {"measurement": "safety and tolerability", "setting": "[2]", "value": "safe and tolerated"},
      {"measurement": "Aβ40 % change from baseline, Mean (SD)", "setting": "[3]; 2 mg, E4 heterozygotes", "value": "−21 (11) %"},
      {"measurement": "Aβ40 % change from baseline, Median", "setting": "[3]; 2 mg, E4 heterozygotes", "value": "−18", "unit": "%"},
      {"measurement": "Aβ40 % change from baseline, Mean (SD)", "setting": "[3]; 2 mg, E4 non-carriers", "value": "−24 (9) %"},
      {"measurement": "Aβ40 % change from baseline, Median", "setting": "[3]; 2 mg, E4 non-carriers", "value": "−22", "unit": "%"},
      {"measurement": "Aβ40 % change from baseline, Mean (SD)", "setting": "[3]; 10 mg, E4 heterozygotes", "value": "−67 (7) %"},
      {"measurement": "Aβ40 % change from baseline, Median", "setting": "[3]; 10 mg, E4 heterozygotes", "value": "−64", "unit": "%"},
      {"measurement": "Aβ40 % change from baseline, Mean (SD)", "setting": "[3]; 10 mg, E4 non-carriers", "value": "−64 (6) %"},
      {"measurement": "Aβ40 % change from baseline, Median", "setting": "[3]; 10 mg, E4 non-carriers", "value": "−65", "unit": "%"},
      {"measurement": "Aβ40 % change from baseline, Mean (SD)", "setting": "[3]; 35 mg, E4 heterozygotes", "value": "−84 (3) %"},
      {"measurement": "Aβ40 % change from baseline, Median", "setting": "[3]; 35 mg, E4 heterozygotes", "value": "−85", "unit": "%"},
      {"measurement": "Aβ40 % change from baseline, Mean (SD)", "setting": "[3]; 35 mg, E4 non-carriers", "value": "−82 (5) %"},
      {"measurement": "Aβ40 % change from baseline, Median", "setting": "[3]; 35 mg, E4 non-carriers", "value": "−83", "unit": "%"},
      {"measurement": "Aβ40 % change from baseline, Mean (SD)", "setting": "[3]; 85 mg, E4 heterozygotes", "value": "−91 (0) %"},
      {"measurement": "Aβ40 % change from baseline, Median", "setting": "[3]; 85 mg, E4 heterozygotes", "value": "−91", "unit": "%"},
      {"measurement": "Aβ40 % change from baseline, Mean (SD)", "setting": "[3]; 85 mg, E4 non-carriers", "value": "−91 (2) %"},
      {"measurement": "Aβ40 % change from baseline, Median", "setting": "[3]; 85 mg, E4 non-carriers", "value": "−90", "unit": "%"},
      {"measurement": "difference in CSF Aβ40 and Aβ42 response between ApoE4 carriers and non-carriers", "setting": "[3]; first-in-human (2 weeks) and 3-month studies", "value": "no difference in CSF Aβ40 and Aβ42 response to treatment"},
      {"measurement": "PD steady-state (Aβ lowering) reached after", "setting": "[3]; healthy elderly subjects, once-daily dosing", "value": "2-3 weeks"},
      {"measurement": "Aβ40 in CSF percent change from baseline, Difference (90% CI) Cmpd 1-Placebo", "setting": "[3]; month 3, 2 mg QD", "value": "−19.87 (−23.09, −16.65) %"},
      {"measurement": "Aβ40 in CSF percent change from baseline, LSmean (SE)", "setting": "[3]; month 3, 2 mg QD", "value": "−22.66 (1.355) %"},
      {"measurement": "Aβ40 in CSF percent change from baseline, Difference (90% CI) Cmpd 1-Placebo", "setting": "[3]; month 3, 10 mg QD", "value": "−60.18 (−63.43, −56.92) %"},
      {"measurement": "Aβ40 in CSF percent change from baseline, LSmean (SE)", "setting": "[3]; month 3, 10 mg QD", "value": "−62.96 (1.388) %"},
      {"measurement": "Aβ40 in CSF percent change from baseline, Difference (90% CI) Cmpd 1-Placebo", "setting": "[3]; month 3, 35 mg QD", "value": "−80.41 (−83.59, −77.22) %"},
      {"measurement": "Aβ40 in CSF percent change from baseline, LSmean (SE)", "setting": "[3]; month 3, 35 mg QD", "value": "−83.19 (1.325) %"},
      {"measurement": "Aβ40 in CSF percent change from baseline, Difference (90% CI) Cmpd 1-Placebo", "setting": "[3]; month 3, 85 mg QD", "value": "−87.62 (−90.93, −84.30) %"},
      {"measurement": "Aβ40 in CSF percent change from baseline, LSmean (SE)", "setting": "[3]; month 3, 85 mg QD", "value": "−90.40 (1.429) %"}
    ]}
  ]
}
